The text below walks through data of patent publication US6716819B2, “Use of xylitol to reduce ionic strength and activate endogenous antimicrobials for prevention and treatment of infections” (University of Iowa Research Foundation, priority 2000, dated 2004).

One experiment concerns non-CF epithelia. Briefly: Transepithelial electrical properties in Ussing chambers. In kind it is cell-based, human. Conditions: 10 μM apical, n=9. An excerpt: (§1) For measurement of transepithelial electrical properties, a few epithelia from each culture preparation were mounted in Ussing chambers and studied as previously described (Zabner, J., J. J. Smith, P. H. Karp, J. H. Widdicombe, and M. J. Welsh. 1998. Loss of CFTR chloride channels alters salt absorption by cystic fibrosis airway epithelia in vitro. Mol. Cell. 2:397-403). Transepithelial resistance was 588±33 Ω·cm^2 (n=9) for non-CF and 493±24 Ω·cm^2 (n=9) for CF epithelia. The decrease in current after apical addition of 10 μM amiloride was 26.9±1.0 μA·cm^−2·hr^−1 (n=9) for non-CF epithelia and 20.0±1.3 μA·cm^−2·hr^−1 (n=9) for CF epithelia.

Another experiment has as its system CF epithelia. The experiment is described as above. The settings on record: 10 μM apical, n=9. It counts as cell-based, human.
Description: as §1

In a further experiment the test system is P. aeruginosa. Kind of experiment: Growth in carbon-starved M9 media (O.D.). Conditions: M9 media supplemented at 100 mM. It counts as cell-based. On the procedure: FIGS. 5(A-G). […] A, B and C. Growth of P. aeruginosa (A), S. aureus, (B), and coagulase-negative Staphylococcus (C) were measured as O. D. M9 media alone is indicated by open triangle. Xylitol (closed circle), or succinate, mannitol, or sucrose (open circles), were added to M9 media at 100 mM as indicated. D. Nasal swabs were collected and cultured for 3 days in Lauria-Bertani media (open circles), in minimal M9 media (open squares), or in M9 media supplemented with 100 mM xylitol (closed circles). E, F and G. P. aeruginosa (E), S. aureus (F), and coagulase-negative Staphylococcus (G) were cultured in Lauria-Bertani media alone (open triangles), Lauria-Bertani media with 100 mM xylitol (closed circles), and Lauria-Bertani media containing tobramycin or levofloxacin (open circles).
To test the effect of xylitol on growth of different airway pathogens in a carbon-starved media, P. aeruginosa, S. aureus, and coagulase-negative Staphylococcus were grown overnight in Lauria-Bertani medium. The bacteria were then centrifuged and resuspended in M9 media containing either 100 mM succinate, mannitol, or sucrose, respectively, and grown overnight at 37° C. The bacteria were centrifuged and resuspended in M9 media alone. M9 media containing 100 mM xylitol, or 100 mM of the indicated metabolizable sugar, as positive control. The optical density (O.D.) was measured after 0, 1, 2, and 4 hours at 600 nm on a Beckman DU640 Spectrophotometer (Schaumburg, Ill.). To test the antibiotic effect of xylitol, P. aeruginosa, S. aureus, and coagulase-negative Staphylococcus were grown overnight in Lauria-Bertani medium. The bacteria were then centrifuged and resuspended in Lauria-Bertani media with and without 100 mM xylitol. As a positive control, antibiotics with specific activity to each of the bacteria were added to the media (40 μg/ml tobramycin or 40 μg/ml levofloxacin).

For `N=C(N)NC(=O)c1nc(Cl)c(N)nc1N` [amiloride], the entries for the “decrease in current after apical addition” value with non-CF epithelia and with CF epithelia were 26.9±1.0 μA·cm^−2·hr^−1 and 20.0±1.3 μA·cm^−2·hr^−1, respectively.
For the compound `O=C(O)CCC(=O)O` [succinate, reference compound], the “growth of P. aeruginosa” value with P. aeruginosa is reported as “allowed bacterial growth”.
